Data reported in patent US7741354B2, “Inhibitors of glutaminyl cyclase” (Probiodrug AG, priority 2006, dated 2010).
Where two headings read alike, the source gives them in different places.

Biological target: hQC (Homo sapiens, UniProt Q16769)
Assay: Fluorometric (fluorescent) assay of hQC inhibition, IC50
Assay type: biochemical
Experimental: All compounds were immediately tested regarding their activity as hQC inhibitors.
The purity of the compounds was determined by HPLC-MS. The IC50 value against hQC was measured using the fluorescent assay.
All measurements were performed with a BioAssay Reader HTS-7000Plus for microplates (Perkin Elmer) at 30° C. QC activity was evaluated fluorometrically using H-Gln-βNA. The samples consisted of 0.2 mM fluorogenic substrate, 0.25 U pyroglutamyl aminopeptidase (Unizyme, Horsholm, Denmark) in 0.2 M Tris/HCl, pH 8.0 containing 20 mM EDTA and an appropriately diluted aliquot of QC in a final volume of 250 μl. Excitation/emission wavelengths were 320/410 nm. The assay reactions were initiated by addition of glutaminyl cyclase. QC activity was determined from a standard curve of β-naphthylamine under assay conditions. One unit is defined as the amount of QC catalyzing the formation of 1 μmol pGlu-βNA from H-Gln-βNA per minute under the described conditions.
In a second fluorometric assay, QC was activity determined using H-Gln-AMC as substrate. Reactions were carried out at 30° C. utilizing the NOVOStar reader for microplates (BMG labtechnologies). The samples consisted of varying concentrations of the fluorogenic substrate, 0.1 U pyroglutamyl aminopeptidase (Qiagen) in 0.05 M Tris/HCl, pH 8.0 containing 5 mM EDTA and an appropriately diluted aliquot of QC in a final volume of 250 μl. Excitation/emission wavelengths were 380/460 nm. The assay reactions were initiated by addition of glutaminyl cyclase. QC activity was determined from a standard curve of 7-amino-4-methylcoumarin under assay conditions. The kinetic data were evaluated using GraFit sofware.
For inhibitor testing, the sample composition was the same as described above, except of the putative inhibitory compound added. For a rapid test of QC-inhibition, samples contained 4 mM of the respective inhibitor and a substrate concentration at 1 KM. For detailed investigations of the inhibition and determination of Ki-values, influence of the inhibitor on the auxiliary enzymes was investigated first. […] The inhibitory constant was evaluated by fitting the set of progress curves to the general equation for competitive inhibition using GraFit software.

[1] = purified compound from preparative synthesis, fluorescent assay, read-out: IC50 hQC

hQC, sequence (Q16769 29-361): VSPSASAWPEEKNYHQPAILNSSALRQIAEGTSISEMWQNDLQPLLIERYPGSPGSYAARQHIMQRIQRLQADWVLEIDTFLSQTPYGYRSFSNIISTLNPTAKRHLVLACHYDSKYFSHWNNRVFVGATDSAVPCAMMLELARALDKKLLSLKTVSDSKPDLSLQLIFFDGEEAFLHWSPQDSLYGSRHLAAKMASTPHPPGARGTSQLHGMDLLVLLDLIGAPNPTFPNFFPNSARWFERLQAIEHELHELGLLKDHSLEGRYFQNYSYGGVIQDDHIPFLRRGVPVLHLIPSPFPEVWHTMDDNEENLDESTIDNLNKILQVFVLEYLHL

Compound | IC50 (read-out: IC50) | IC50 [1]
CC(C)(C)n1nnnc1C(NCCCn1ccnc1)[C@@H]1CCC=CO1 (stereo in doubt) [compound 61, [(S)-(1-tert-Butyl-1H-tetrazol-5-yl)-3,4-dihydro-2H-pyran-2-yl-methyl]-(3-imidazol-1-yl-propyl)-amine] | 6.7 µM | 
Cc1ccc(O)c(C(NCCCn2ccnc2)c2nnnn2Cc2ccc(Cl)cc2)c1 (centres unmarked) [Compound 3, 2-[[1-(4-Chloro-benzyl)-1H-tetrazol-5-yl]-(3-imidazol-1-yl-propylamino)-methyl]-4-methyl-phenol] | 0.4 µM | 0.584 µM
Clc1ccc(Cn2nnnc2C(NCCCn2ccnc2)c2ccc3[nH]ccc3c2)cc1 (centres unmarked) [Compound 6, [[1-(4-Chloro-benzyl)-1H-tetrazol-5-yl]-(1H-indol-5-yl)-methyl]-(3-imidazol-1-yl-propyl)-amine] | 0.4 µM | 0.45 µM
C1=COC(C(NCCCn2ccnc2)c2nnnn2C2CCCC2)CC1 (centres unmarked) [Compound 28, [(1-Cyclopentyl-1H-tetrazol-5-yl)-(3,4-dihydro-2H-pyran-2-yl)-methyl]-(3-imidazol-1-yl-propyl)-amine] | 0.4 µM | 3.47 µM
CN(C)CCn1nnnc1C(NCCCn1ccnc1)C1CCC=CO1 (centres unmarked) [Compound 38, {(3,4-Dihydro-2H-pyran-2-yl)-[1-(2-dimethylamino-ethyl)-1H-tetrazol-5-yl]-methyl}-(3-imidazol-1-yl-propyl)-amine] | 0.4 µM | 2.88 µM
Cc1ccc(O)c(C(NCCCn2ccnc2)c2nnnn2CC(C)(C)C)c1 (centres unmarked) [Compound 63, 2-[[1-(2,2-Dimethyl-propyl)-1H-tetrazol-5-yl]-(3-imidazol-1-yl-propylamino)-methyl]-4-methyl-phenol] | 0.04 µM | 2.37 µM
CC(C)(C)Cn1nnnc1C(NCCCn1ccnc1)c1ccc2cccc(O)c2n1 (centres unmarked) [Compound 64, 2-[[1-(2,2-Dimethyl-propyl)-1H-tetrazol-5-yl]-(3-imidazol-1-yl-propylamino)-methyl]-quinolin-8-ol] | 0.4 µM | 1.03 µM
Cc1ccc(O)c(C(NCCCn2ccnc2)c2nnnn2C2CC2)c1 (centres unmarked) [Compound 68, 2-[(1-Cyclopropyl-1H-tetrazol-5-yl)-(3-imidazol-1-yl-propylamino)-methyl]-4-methyl-phenol] | 0.4 µM | 0.668 µM
Clc1ccc(Cn2nnnc2C(NCCCn2ccnc2)c2ccc(Cl)c(Cl)c2)cc1 (centres unmarked) [compound 1, [[1-(4-Chloro-benzyl)-1H-tetrazol-5-yl]-(3,4-dichloro-phenyl)-methyl]-(3-imidazol-1-yl-propyl)-amine] | 2.2 µM | 
Cc1ccc(C(NCCCn2ccnc2)c2nnnn2Cc2ccc(Cl)cc2)cc1C (centres unmarked) [compound 2, [[1-(4-Chloro-benzyl)-1H-tetrazol-5-yl]-(3,4-dimethyl-phenyl)-methyl]-(3-imidazol-1-yl-propyl)-amine] | 6.7 µM | 
Oc1cccc2ccc(C(NCCCn3ccnc3)c3nnnn3Cc3ccc(Cl)cc3)nc12 (centres unmarked) [compound 4, 2-[[1-(4-Chloro-benzyl)-1H-tetrazol-5-yl]-(3-imidazol-1-yl-propylamino)-methyl]-quinolin-8-ol] | 4.9 µM | 
N#Cc1cc(C(NCCCn2ccnc2)c2nnnn2Cc2ccc(Cl)cc2)ccc1F (centres unmarked) [compound 5, 5-[[1-(4-Chloro-benzyl)-1H-tetrazol-5-yl]-(3-imidazol-1-yl-propylamino)-methyl]-2-fluoro-benzonitrile] | 6.7 µM | 
Clc1ccc(Cn2nnnc2C(NCCCn2ccnc2)c2ccc3ccccc3n2)cc1 (centres unmarked) [compound 7, {[1-(4-Chloro-benzyl)-1H-tetrazol-5-yl]-quinolin-2-yl-methyl}-(3-imidazol-1-yl-propyl)-amine] | 1.3 µM | 
CC1=CCCC[C@@H]1C(NCCCn1ccnc1)c1nnnn1Cc1ccc(Cl)cc1 (stereo partly drawn) [compound 8, [[1-(4-Chloro-benzyl)-1H-tetrazol-5-yl]-((S)-2-methyl-cyclohex-2-enyl)-methyl]-(3-imidazol-1-yl-propyl)-amine] | 4 µM | 
Clc1ccc(Cn2nnnc2[C@H](NCCCn2ccnc2)C2CCC=CO2)cc1 (stereo partly drawn) [compound 9, {(S)-[1-(4-Chloro-benzyl)-1H-tetrazol-5-yl]-3,4-dihydro-2H-pyran-2-yl-methyl}-(3-imidazol-1-yl-propyl)-amine] | 4.9 µM | 
Clc1ccc(C(NCCCn2ccnc2)c2nnnn2C[C@@H]2CCCO2)cc1Cl (some centres unmarked) [compound 10] | 4 µM | 
Cc1ccc(O)c(C(NCCCn2ccnc2)c2nnnn2C[C@@H]2CCCO2)c1 (stereo partly drawn) [compound 11, 2-((3-Imidazol-1-yl-propylamino)-{1-[(S)-1-(tetrahydro-furan-2-yl)methyl]-1H-tetrazol-5-yl}-methyl)-4-methyl-phenol] | 3.1 µM | 

Compound | IC50 (read-out: IC50) | IC50 [1]
Oc1cccc2ccc(C(NCCCn3ccnc3)c3nnnn3C[C@@H]3CCCO3)nc12 (stereo partly drawn) [compound 12, 2-((3-Imidazol-1-yl-propylamino)-{1-[(S)-1-(tetrahydro-furan-2-yl)methyl]-1H-tetrazol-5-yl}-methyl)-quinolin-8-ol] | 2.2 µM | 
c1cn(CCCNC(c2ccc3[nH]ccc3c2)c2nnnn2C[C@@H]2CCCO2)cn1 (stereo partly drawn) [compound 13, (3-Imidazol-1-yl-propyl)-((1H-indol-5-yl)-{1-[(S)-1-(tetrahydro-furan-2-yl)methyl]-1H-tetrazol-5-yl}-methyl)-amine] | 6.7 µM | 
c1ccc2nc(C(NCCCn3ccnc3)c3nnnn3C[C@@H]3CCCO3)ccc2c1 (stereo partly drawn) [compound 14, (3-Imidazol-1-yl-propyl)-(quinolin-2-yl-{1-[(S)-1-(tetrahydro-furan-2-yl)methyl]-1H-tetrazol-5-yl}-methyl)-amine] | 2.2 µM | 
c1ccc2oc(C(NCCCn3ccnc3)c3nnnn3C[C@@H]3CCCO3)cc2c1 (stereo partly drawn) [compound 15, (Benzofuran-2-yl-{1-[(S)-1-(tetrahydro-furan-2-yl)methyl]-1H-tetrazol-5-yl}-methyl)-(3-imidazol-1-yl-propyl)-amine] | 6.7 µM | 
Cc1ccc2c(C(NCCCn3ccnc3)c3nnnn3C[C@@H]3CCCO3)c[nH]c2c1 (stereo partly drawn) [compound 16, (3-Imidazol-1-yl-propyl)-((6-methyl-1H-indol-3-yl)-{1-[(S)-1-(tetrahydro-furan-2-yl)methyl]-1H-tetrazol-5-yl}-methyl)-amine] | 7.6 µM | 
Cc1cc(C)c(C(NCCCn2ccnc2)c2nnnn2C[C@@H]2CCCO2)cc1C (stereo partly drawn) [compound 17, (3-Imidazol-1-yl-propyl)-[{1-[(S)-1-(tetrahydro-furan-2-yl)methyl]-1H-tetrazol-5-yl}-(2,4,5-trimethyl-phenyl)-methyl]-amine] | 4 µM | 
CCCCn1nnnc1C(NCCCn1ccnc1)c1ccc(Cl)c(Cl)c1 (centres unmarked) [compound 18, [(1-Butyl-1H-tetrazol-5-yl)-(3,4-dichloro-phenyl)-methyl]-(3-imidazol-1-yl-propyl)-amine] | 7.6 µM | 
CCCCn1nnnc1C(NCCCn1ccnc1)c1cc(C)ccc1O (centres unmarked) [compound 19, 2[(1-Butyl-1H-tetrazol-5-yl)-(3-imidazol-1-yl-propylamino)-mehtyl]-4-methyl-phenol] | 2.2 µM | 
CCCCn1nnnc1C(NCCCn1ccnc1)c1ccc2cccc(O)c2n1 (centres unmarked) [compound 20, 2-[(1-Butyl-1H-tetrazol-5-yl)-(3-imidazol-1-yl-propylamino)-methyl]-quinolin-8-ol] | 2.2 µM | 
CCCCn1nnnc1C(NCCCn1ccnc1)c1ccc2[nH]ccc2c1 (centres unmarked) [compound 21, [(1-Butyl-1H-tetrazol-5-yl)-(1H-indol-5-yl)-methyl]-(3-imidazol-1-yl-propyl)-amine] | 6.7 µM | 
CCCCn1nnnc1C(NCCCn1ccnc1)c1ccc2ccccc2n1 (centres unmarked) [compound 22, [(1-Butyl-1H-tetrazol-5-yl)-quinolin-2-yl-methyl]-(3-imidazol-1-yl-propyl)-amine] | 3.1 µM | 
CCCCn1nnnc1C(NCCCn1ccnc1)c1cc2ccccc2o1 (centres unmarked) [compound 23] | 9.4 µM | 
CCCCn1nnnc1C(NCCCn1ccnc1)c1cc(C)c(C)cc1C (centres unmarked) [compound 24, [(1-Butyl-1H-tetrazol-5-yl)-(2,4,5-trimethyl-phenyl)-methy]-(3-imidazol-1-yl-propyl)-amine] | 4.9 µM | 
Oc1cccc2ccc(C(NCCCn3ccnc3)c3nnnn3C3CCCC3)nc12 (centres unmarked) [compound 25, 2-[(1-Cyclopentyl-1H-tetrazol-5-yl)-(3-imidazol-1-yl-propylamino)-methyl]-quinolin-8-ol] | 2.2 µM | 
c1cn(CCCNC(c2ccc3[nH]ccc3c2)c2nnnn2C2CCCC2)cn1 (centres unmarked) [compound 26] | 3.1 µM | 
CC1=CCCC[C@@H]1C(NCCCn1ccnc1)c1nnnn1C1CCCC1 (stereo partly drawn) [compound 27, [(1-Cyclopentyl-1H-tetrazol-5-yl)-((S)-2-methyl-cyclohex-2-enyl)-methyl]-(3-imidazol-1-yl-propyl)-amine] | 6.7 µM | 
Cn1nnnc1C(NCCCn1ccnc1)c1ccc2cccc(O)c2n1 (centres unmarked) [compound 29, 2-[(3-imidazol-1-yl-propylamino)-(1-methyl-1H-tetrazol-5-yl)-methyl]-quinolin-8-ol] | 3.1 µM | 
